Source: ChEMBL document CHEMBL1201862, “PubChem BioAssay data set” (2004)
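Tested at 5 concentrations; 48 h exposure; 96-well plates; endpoints linearly interpolated, else capped at highest concentration. The concentration for 50% growth inhibition is given as GI50.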 Calls of active or inactive are those of the source. Rule as the data show it: active = GI50 up to about 1.1 µM and inactive = higher.

Assays:
Experiment in all cases: NCI tumour cell line growth inhibition, 48 h
BT-549 = test system: BT-549
CCRF-CEM = test system: CCRF-CEM
MDA-MB-231 = test system: MDA-MB-231
MDA-MB-435 = test system: MDA-MB-435
MOLT-4 = test system: MOLT-4
Malme-3M = test system: Malme-3M
NCI-H226 = test system: NCI-H226
NCI-H460 = test system: NCI-H460
NCI/ADR-RES = test system: NCI/ADR-RES
OVCAR-3 = test system: OVCAR-3
OVCAR-4 = test system: OVCAR-4
OVCAR-5 = test system: OVCAR-5
RPMI-8226 = test system: RPMI-8226
SF-268 = test system: SF-268
SK-MEL-5 = test system: SK-MEL-5
SNB-75 = test system: SNB-75
T47D = test system: T47D
U-251 = test system: U-251
UACC-257 = test system: UACC-257
UACC-62 = test system: UACC-62

Measured: GI50

Cc1cc(C)c2c(O)cc(-c3ccc(Cl)cc3)nc2n1
inactive: BT-549 23.6 µM | CCRF-CEM 69.3 µM | MDA-MB-231 > 27.9 µM | MDA-MB-435 6.79 µM | MOLT-4 22.5 µM | Malme-3M 30.8 µM | NCI-H226 > 100 µM | NCI-H460 25.8 µM | NCI/ADR-RES > 31.8 µM | OVCAR-3 26.9 µM | OVCAR-4 21.6 µM | OVCAR-5 > 100 µM | RPMI-8226 30.3 µM | SF-268 > 100 µM | SK-MEL-5 17.1 µM | SNB-75 33.2 µM | T47D 40 µM | U-251 36.8 µM | UACC-257 24.4 µM | UACC-62 60.4 µM
